Measurements published in PubChem BioAssay (NCI).
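Assay format: 96-well plates, 48-hour exposure. The concentration for full growth arrest is given as TGI.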

What was measured:
Experiment in all cases: NCI-60 cell line screen, 48 h
CAKI-1 renal = tested on: CAKI-1 renal
K-562 leukemia = tested on: K-562 leukemia
OVCAR-4 ovarian = tested on: OVCAR-4 ovarian
HS 578T breast = tested on: HS 578T breast
TK-10 renal = tested on: TK-10 renal
U251 CNS = tested on: U251 CNS
UO-31 renal = tested on: UO-31 renal
MALME-3M melanoma = tested on: MALME-3M melanoma
RXF 393 renal = tested on: RXF 393 renal
MCF7 breast = tested on: MCF7 breast
SN12C renal = tested on: SN12C renal
ACHN renal = tested on: ACHN renal
SF-295 CNS = tested on: SF-295 CNS
HL-60(TB) leukemia = tested on: HL-60(TB) leukemia
OVCAR-3 ovarian = tested on: OVCAR-3 ovarian
A498 renal = tested on: A498 renal
MDA-N = tested on: MDA-N
SR leukemia = tested on: SR leukemia
M14 melanoma = tested on: M14 melanoma
NCI-H522 lung = tested on: NCI-H522 lung
SK-OV-3 ovarian = tested on: SK-OV-3 ovarian
SF-268 CNS = tested on: SF-268 CNS
HCT-15 colon = tested on: HCT-15 colon
RPMI-8226 leukemia = tested on: RPMI-8226 leukemia
DU-145 prostate = tested on: DU-145 prostate
MDA-MB-231 breast = tested on: MDA-MB-231 breast
LOX IMVI melanoma = tested on: LOX IMVI melanoma
SF-539 CNS = tested on: SF-539 CNS
T-47D breast = tested on: T-47D breast
SK-MEL-5 melanoma = tested on: SK-MEL-5 melanoma
HT29 colon = tested on: HT29 colon
HOP-92 NSCLC = tested on: HOP-92 NSCLC
KM12 colon = tested on: KM12 colon
UACC-62 melanoma = tested on: UACC-62 melanoma
UACC-257 melanoma = tested on: UACC-257 melanoma
OVCAR-5 ovarian = tested on: OVCAR-5 ovarian
NCI/ADR-RES ovarian = tested on: NCI/ADR-RES ovarian
HCT-116 colon = tested on: HCT-116 colon
HOP-62 NSCLC = tested on: HOP-62 NSCLC
OVCAR-8 ovarian = tested on: OVCAR-8 ovarian
BT-549 breast = tested on: BT-549 breast
CCRF-CEM leukemia = tested on: CCRF-CEM leukemia
SW-620 colon = tested on: SW-620 colon
MDA-MB-435 = tested on: MDA-MB-435
HCC-2998 colon = tested on: HCC-2998 colon
SK-MEL-2 melanoma = tested on: SK-MEL-2 melanoma
EKVX NSCLC = tested on: EKVX NSCLC
A549 NSCLC = tested on: A549 NSCLC
NCI-H226 lung = tested on: NCI-H226 lung
NCI-H460 lung = tested on: NCI-H460 lung
786-0 renal = tested on: 786-0 renal
NCI-H23 lung = tested on: NCI-H23 lung
COLO 205 colon = tested on: COLO 205 colon
MOLT-4 leukemia = tested on: MOLT-4 leukemia
SNB-19 CNS = tested on: SNB-19 CNS
SK-MEL-28 melanoma = tested on: SK-MEL-28 melanoma
IGROV1 ovarian = tested on: IGROV1 ovarian
PC-3 prostate = tested on: PC-3 prostate
SNB-75 CNS = tested on: SNB-75 CNS

## COc1cc(/C=C2/SC(c3ccccc3)N(c3cccc(Cl)c3)C2=O)cc(OC)c1OC (stereo not given)
CAKI-1 renal
  TGI: > 100 µM
K-562 leukemia
  TGI: > 100 µM
OVCAR-4 ovarian
  TGI: > 100 µM
HS 578T breast
  TGI: > 100 µM
TK-10 renal
  TGI: > 100 µM
U251 CNS
  TGI: 86.8 µM
UO-31 renal
  TGI: > 100 µM
MALME-3M melanoma
  TGI: 96.5 µM
RXF 393 renal
  TGI: 53.1 µM
MCF7 breast
  TGI: > 100 µM
SN12C renal
  TGI: 37.2 µM
ACHN renal
  TGI: > 100 µM
SF-295 CNS
  TGI: > 100 µM
HL-60(TB) leukemia
  TGI: > 100 µM
OVCAR-3 ovarian
  TGI: > 100 µM
A498 renal
  TGI: > 100 µM
MDA-N
  TGI: 43.2 µM
SR leukemia
  TGI: 81.8 µM
M14 melanoma
  TGI: > 100 µM
NCI-H522 lung
  TGI: 26.2 µM
SK-OV-3 ovarian
  TGI: > 100 µM
SF-268 CNS
  TGI: > 100 µM
HCT-15 colon
  TGI: > 100 µM
RPMI-8226 leukemia
  TGI: 58.3 µM
DU-145 prostate
  TGI: > 100 µM
MDA-MB-231 breast
  TGI: > 100 µM
LOX IMVI melanoma
  TGI: 35.1 µM
SF-539 CNS
  TGI: 43 µM
T-47D breast
  TGI: > 100 µM
SK-MEL-5 melanoma
  TGI: > 100 µM
HT29 colon
  TGI: 72.6 µM
HOP-92 NSCLC
  TGI: 77.4 µM
KM12 colon
  TGI: > 100 µM
UACC-62 melanoma
  TGI: > 100 µM
UACC-257 melanoma
  TGI: > 100 µM
OVCAR-5 ovarian
  TGI: > 100 µM
NCI/ADR-RES ovarian
  TGI: 73.9 µM
HCT-116 colon
  TGI: 34.8 µM
HOP-62 NSCLC
  TGI: > 100 µM
OVCAR-8 ovarian
  TGI: 59.6 µM
BT-549 breast
  TGI: 72 µM
CCRF-CEM leukemia
  TGI: 39.9 µM
SW-620 colon
  TGI: > 100 µM
MDA-MB-435
  TGI: 93.4 µM
HCC-2998 colon
  TGI: > 100 µM
SK-MEL-2 melanoma
  TGI: > 100 µM
EKVX NSCLC
  TGI: > 100 µM
A549 NSCLC
  TGI: > 100 µM
NCI-H226 lung
  TGI: > 100 µM
NCI-H460 lung
  TGI: > 100 µM
786-0 renal
  TGI: 36.4 µM
NCI-H23 lung
  TGI: > 100 µM
COLO 205 colon
  TGI: > 100 µM
MOLT-4 leukemia
  TGI: > 100 µM
SNB-19 CNS
  TGI: > 100 µM
SK-MEL-28 melanoma
  TGI: 90.1 µM

## C=C(C)C1Cc2c(cc(OC)c3c(=O)c4cccc(O)c4oc23)O1 (stereo not given)
CAKI-1 renal
  TGI: 30.2 µM
K-562 leukemia
  TGI: > 100 µM
OVCAR-4 ovarian
  TGI: 42.4 µM
HS 578T breast
  TGI: 49.3 µM
TK-10 renal
  TGI: 46.9 µM
U251 CNS
  TGI: 34.8 µM
UO-31 renal
  TGI: 39 µM
MALME-3M melanoma
  TGI: 48.4 µM
RXF 393 renal
  TGI: 35.9 µM
IGROV1 ovarian
  TGI: 33.1 µM
MCF7 breast
  TGI: 17.4 µM
SN12C renal
  TGI: 76.7 µM
ACHN renal
  TGI: 32.1 µM
SF-295 CNS
  TGI: 41.6 µM
HL-60(TB) leukemia
  TGI: > 100 µM
MDA-N
  TGI: 53.1 µM
SR leukemia
  TGI: > 100 µM
M14 melanoma
  TGI: 50.8 µM
NCI-H522 lung
  TGI: 33.8 µM
SK-OV-3 ovarian
  TGI: 33.7 µM
SF-268 CNS
  TGI: 43.4 µM
HCT-15 colon
  TGI: > 100 µM
DU-145 prostate
  TGI: > 100 µM
MDA-MB-231 breast
  TGI: 47.6 µM
LOX IMVI melanoma
  TGI: 29.6 µM
SF-539 CNS
  TGI: 32.3 µM
T-47D breast
  TGI: 40 µM
SK-MEL-5 melanoma
  TGI: 30.1 µM
HT29 colon
  TGI: > 100 µM
KM12 colon
  TGI: > 100 µM
UACC-62 melanoma
  TGI: 31.9 µM
UACC-257 melanoma
  TGI: > 100 µM
OVCAR-5 ovarian
  TGI: > 100 µM
NCI/ADR-RES ovarian
  TGI: > 100 µM
HCT-116 colon
  TGI: 39.4 µM
HOP-62 NSCLC
  TGI: 36.5 µM
OVCAR-8 ovarian
  TGI: 59.5 µM
BT-549 breast
  TGI: 34.8 µM
CCRF-CEM leukemia
  TGI: > 100 µM
SW-620 colon
  TGI: > 100 µM
HCC-2998 colon
  TGI: > 100 µM
SK-MEL-2 melanoma
  TGI: 42.4 µM
EKVX NSCLC
  TGI: > 100 µM
A549 NSCLC
  TGI: 88.8 µM
NCI-H226 lung
  TGI: 44 µM
NCI-H460 lung
  TGI: 62.6 µM
786-0 renal
  TGI: 32.9 µM
NCI-H23 lung
  TGI: 59.5 µM
PC-3 prostate
  TGI: > 100 µM
COLO 205 colon
  TGI: > 100 µM
SNB-75 CNS
  TGI: 29.9 µM
MOLT-4 leukemia
  TGI: > 100 µM
SNB-19 CNS
  TGI: 98.4 µM
SK-MEL-28 melanoma
  TGI: 72 µM
